The subject of data set [1] is interleukin 12 (IL-12). Kind of data set: Quantitative PCR for IL-12 in MOG-EAE rats. The data set is classed as in vivo, DA rats. Conditions: treatment on day 0. An excerpt:
(§1) In a second experiment, five rats each were characterised immunologically on day 12 and day 40 (total number of animals: n=30) following the immunisation with respect to T and B cell response (EliSpot (Autoimmun Diagnostika GmbH, D-72479 Strassberg) for IFN-secreting cells, proliferations, auto-antibody analysis). (R. Weissert et al., J. Immunol. 160 […], 681–690).
(§2) It was, moreover, observed that the interleukin 12 (IL-12) and/or interferon-β (IFN-β) values were reduced in the treosulfan group (FIG. 16, 17). (R. Weissert et al., J. Immunol. 166 (2001), 7588–7599).
FIG. 17: Quantitative PCR for IL-12 treatment with treosulfan on day 0.

In data set [2] the test system is myelin oligodendrocyte glycoprotein (MOG) induced experimental autoimmune encephalomyelitis (EAE). Description: MOG-induced experimental autoimmune encephalomyelitis (EAE) in DA rats, clinical course. The data set is classed as in vivo. How it is done:
Using the example of experimental autoimmune encephalomyelitis (EAE) which is recognized as animal model of human MS, the effectiveness of treosulfan was first of all examined. […] In the first trials, treosulfan was applied on the day of immunisation, in another on day 14 following immunisation.
Firstly, several trials for the determination of the dosage of treosulfan were carried out in DA rats, a strain of rat particularly suitable for these trials (Dark Agouti strain) with myelin oligodendrocyte glycoprotein (MOG) induced experimental autoimmune encephalomyelitis (EAE). These rats represent an excellent model of multiple sclerosis (MS) since the clinical development and the lesion morphology (inflammation, demyelination, loss of axons and nerve cells) of MS can be reproduced.
DA rats (10 animals per group) were treated either with a single dose of treosulfan (0.5 g/kg bodyweight) on the day of immunisation (p.i.) or with a three times repeated treosulfan application (0.5 g/kg bodyweight per application) at intervals of 1 day. PBS (phosphate buffered salt solution) was administered as control. In a further experiment, treosulfan (single dose: 0.5 g/kg bodyweight) was administered 2 weeks after immunisation. The total number of rats was 30 animals. The animals were observed clinically for the period of 40 days after initiation of the experiment and regularly examined neurologically.
FIGS. 3 and/or 3a are different representations of the experiment in which treosulfan was administered on day 14 following immunisation.

Data set [3] in a line: Tolerance and haematological characterisation in MOG-EAE rats. The data set is classed as in vivo, DA rats. An excerpt: To analyse the haematological status, blood was taken from the rats on day 0, day 5, day 14, and day 53 following immunisation and a determination of haemoglobin (Hb), reticulocytes, leukocytes, thrombocytes and crythrocytes carried out.
The tolerance of treosulfan is illustration in FIGS. 5–15.

For data set [4], the system named is secondary progressive MS. Description: Healing trial on patients with secondary progressive MS. It counts as in vivo. The protocol:
In the course of a first healing trial, 5 patients suffering from secondary progressive MS (SPMS patients) were treated. They consisted of 3 men […]/62 and two women […].
As part of the therapy, treosulfan was administered in the form of a solution suitable for intravenous application (infusion). The patients were treated with a dosage of 5 g/m^2 body surface in each case at intervals of 4 weeks in the first quarter. Subsequently, a single treosulfan application (5 g/m^2 of treosulfan) took place per quarter.
In the case of two patients, an improvement of the ambulation index (S. L. Hauser et al. N. Engl. J. Med. 308 (1983) 173–178) was observed.

The subject of data set [5] is interferon-β (IFN-β). Description: Quantitative PCR for IFN in MOG-EAE rats. It counts as in vivo, DA rats. The following applies: treatment on day 0.
From the text: as §1, §2
FIG. 16: Quantitative PCR for IFN-treatment with treosulfan on day 0.

The source of these data is patent US7235590B2, “Use of treosulfan and derivatives thereof for treating multiple sclerosis” (Medac Gesellschaft fur Klinische Spezialpraparate mbH, priority 2002, dated 2007).

Turning to `CS(=O)(=O)OC[C@H](O)[C@@H](O)COS(C)(=O)=O` [treosulfan, (2S,3S)-threitol-1,4-bismethane sulphonate], the “interleukin 12 (IL-12) values” in data set [1] is “reduced”. In addition, the “effectiveness in comparison with the untreated control group” value in data set [2] (FIGS. 1-3a) is given as “confirm first of all the effectiveness”. Further, the animals still alive in data set [2] (day 53, untreated control group 2 out of 8) is recorded as 7 out of 8. In data set [2] (single dose of 1 g/kg bodyweight, intraperitoneal), the “suppression of the disease” value was “capable of suppressing the disease”. Besides, the “disease course in contrast to untreated control group” value in data set [2] (treosulfan applied on day 14 following immunisation) is reported as “stabilisation”. Besides, the “changes to the blood picture (Hb, reticulocytes, leukocytes, thrombocytes, erythrocytes)” value in data set [3] (blood taken day 0, 5, 14 and 53 following immunisation) is recorded as “not documented”. Also, in data set [3] (single dose of 1 g/kg i.p., at the beginning of the treatment), the weight result was “substantial decrease in weight”. In data set [4] (5 SPMS patients, 5 g/m^2 body surface i.v. infusion every 4 weeks in the first quarter, then once per quarter), the “patients with improvement of the ambulation index” value is given as “two”. In addition, the substance-related secondary effects entry in data set [4] (5 SPMS patients, 5 g/m^2 i.v. infusion) is listed as “No substance-related secondary effects were observed”. Also, in data set [4] (summary statement), the “disease development in MS patients” value is given as “clear improvement” and the tolerance entry was “extremely well tolerated”. In data set [5], the “interferon-β (IFN-β) values” is listed as “reduced”.

On to `O=C1c2c(O)ccc(O)c2C(=O)c2c(NCCNCCO)ccc(NCCNCCO)c21` [mitoxantrone], for which the “effectiveness compared with the treosulfan group” value in data set [2] (same trial conditions, single i.p. treatment on the day of immunisation) is reported as “no greater effectiveness”.
